Measurements taken from patent publication US8309685B2 (Celgene Avilomics Research, Inc., priority 2007, dated 2012).
Where two headings read alike, the source gives them in different places.

Experiments:
[1] = biological target: T1, A156T mutant of the HCV NS3/4A 1b protease enzyme (Hepatitis C virus genotype 1b, UniProt P26663, A1182T); test: HCV Protease FRET Assay (IC50), A156T mutant; format: biochemical; details: read-out: Inhibition, HCV A156T; A156T enzyme, FRET assay
T1 construct: 10× stocks of NS3/4A protease enzyme from Bioenza (Mountain View, Calif.); purchased Bioenza (Mountain View, Calif.)
Method: (§1) HCV Protease FRET Assay for Wild Type and Mutated NS3/4A 1b Enzymes (IC50)
The protocol is a modified FRET-based assay (v—02) from In Vitro Resistance Studies of HCV Serine Protease Inhibitors, 2004, JBC, vol. 279, No. 17, pp 17508-17514.
10× stocks of NS3/4A protease enzyme from Bioenza (Mountain View, Calif.) and 1.13× 5-FAM/QXL™ 520 FRET peptide substrate from Anaspec (San Jose, Calif.) were prepared in 50 mM HEPES, pH 7.8, 100 mM NaCl, 5 mM DTT and 20% glycerol. 5 μL of each enzyme were pre-incubated in a Corning (#3573) 384-well, black, non-treated microtiter plate (Corning, N.Y.) for 30 min at 25° C. with a 0.5 μL volume of 50% DMSO and serially diluted compounds prepared in 50% DMSO. Protease reactions were started with the addition of 45 μL of the FRET substrate and monitored for 120 minutes at λex487/λem514 through Quad^4 monochromoters in a Synergy^4 plate reader from BioTek (Winooski, Vt.). At the conclusion of each assay, progress curves from each well were examined for linear reaction kinetics and fit statistics (R^2, absolute sum of squares). Initial velocity (0 minutes to 30+ minutes) from each reaction was determined from the slope of a plot of relative fluorescence units vs time (minutes) and then plotted against inhibitor concentration to estimate IC50 from log[Inhibitor] vs Response, Variable Slope model in GraphPad Prism from GraphPad Software (San Diego, Calif.).
The compound numbers correspond to the compound numbers in Table 3. […] ;

[2] = biological target: T2, D168A mutant of the HCV NS3/4A 1b protease enzyme (Hepatitis C virus genotype 1b, UniProt P26663, D1194A); test: HCV Protease FRET Assay (IC50), D168A mutant; format: biochemical; details: read-out: Inhibition, HCV D168A; D168A enzyme, FRET assay
T2 construct: 10× stocks of NS3/4A protease enzyme from Bioenza (Mountain View, Calif.); purchased Bioenza (Mountain View, Calif.)
Method: as §1
(§2) Protease reactions were started with the addition of 45 μL of the FRET substrate and monitored for 120 minutes at λex487/λem514 through Quad^4 monochromoters in a Synergy^4 plate reader from BioTek (Winooski, Vt.). At the conclusion of each assay, progress curves from each well were examined for linear reaction kinetics and fit statistics (R^2, absolute sum of squares).
(§3) The compound numbers correspond to the compound numbers in Table 3.

[3] = biological target: T3, wild type HCV NS3/4A 1b protease enzyme (Hepatitis C virus genotype 1b, UniProt P26663); test: biochemical; format: biochemical; details: read-out: Inhibition, WT; WT enzyme, FRET assay
T3 construct: 10× stocks of NS3/4A protease enzyme from Bioenza (Mountain View, Calif.); purchased Bioenza (Mountain View, Calif.)
Method: as §1, §2, §3

[4] = system: HCV RNA replicon in cell line ET (luc-ubi-neo/ET), human Huh7 hepatoma; test: Method A: HCV RNA replicon antiviral assay (luciferase, ET cell line); format: cell-based, Hepatitis C virus; details: Hepatitis C virus, Huh-7
Procedure, shortened: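 ET replicon cells (Huh7 carrying luciferase-reporter HCV replicon) plated at 5×10^3 cells/well and exposed 72 hr to six 3-fold drug concentrations in DMEM/5% FBS. Replicon luciferase gave EC50/EC90; CytoTox-1 cell counts gave IC50 (viability); […]. Interferon alpha-2b served as positive control.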

[5] = system: cell line ET (luc-ubi-neo/ET), human Huh7 hepatoma cell line; test: Method A: cytotoxicity in ET replicon cells (CytoTox-1); format: cell-based; details: concentration decreasing cell viability by 50%, 72 hr
Method: The compounds were assayed to evaluate the antiviral activity and cytotoxicity of compounds in vitro using HCV RNA replicons. This assay used the cell line ET (luc-ubi-neo/ET), which is a human Huh7 hepatoma cell line that contains an HCV RNA replicon with a stable luciferase (Luc) reporter and three cell culture-adaptive mutations. […]
The ET cell line was grown in Dulbecco's modified essential media (DMEM), 10% fetal bovine serum (FBS), 1% penicillin-streptomycin (pen-strep), 1% glutamine, 250 μg/ml G418 in a 5% CO2 incubator at 37° C. All cell culture reagents were obtained from Mediatech (Manassas, Va.). Cells were trypsinized (1% trypsin:EDTA) and plated out at 5×10^3 cells/well in white 96-well assay plates (Costar) dedicated to cell number (cytotoxicity) or antiviral activity assessments. Drugs were added at six 3-fold concentrations each and the assay was run in DMEM, 5% FBS, 1% pen-strep, 1% glutamine. Human interferon alpha-2b (PBL Biolabs, New Brunswick, N.J.) was included in each run as a positive control compound. Cells were processed 72 hr post drug addition when the cells are still subconfluent. Antiviral activity was measured by analyzing replicon-derived luciferase activity using the Steady-Glo Luciferase Assay System (Promega, Madison, Wis.) according to manufacturer's instruction. The number of cells in each well was determined by CytoTox-1 reagent (Promega). […].

[6] = biological target: T2, D168A mutant of the HCV NS3/4A 1b protease enzyme; test: HCV Protease FRET Assay (IC50_APP), D168A mutant; format: biochemical; details: apparent IC50, D168A mutant; read-out: IC50_APP, HCV D168A
[7] = biological target: T3, wild type HCV NS3/4A 1b protease enzyme; test: HCV Protease FRET Assay (IC50_APP), wild type; format: biochemical; details: read-out: IC50_APP, WT; apparent IC50, wild type NS3/4A 1b
[8] = biological target: T1, A156T mutant of the HCV NS3/4A 1b protease enzyme; test: HCV Protease FRET Assay (IC50_APP), A156T mutant; format: biochemical; details: apparent IC50, A156T mutant; read-out: IC50_APP, HCV A156T
[9] = Replicon, assay of Example 22, 72 hr, read-out: Inhibition, Replicon
[10] = assay described in Example 22, read-out: Replicon (IC50)

| Structure (SMILES) | IC50 [1] | IC50 [2] | IC50 [3] | IC50 [4, 9] | Inhibition, Cytotoxicity [5] | IC50 [6] | IC90 ([4]; assay described in Example 22) | IC50 [4, 10] | IC50 [7] | IC50 [8] |
| --- | --- | --- | --- | --- | --- | --- | --- | --- | --- | --- |
| C=C[C@@H]1C[C@]1(NC(=O)[C@@H]1C[C@@H](Oc2cc(-c3ccccc3)nc3cc(OC)ccc23)CN1C(=O)[C@H](CNC(=O)/C=C/CN(C)C)NC(=O)OC(C)(C)C)C(=O)NS(=O)(=O)c1ccccc1 [Compound I-5, N-[(1,1-dimethylethoxy)carbonyl]-3-[(4-dimethylamino-2-butenoyl)amino]-L-alanyl-(4R)-4-[(7-methoxy-2-phenyl-4-quinolinyl)oxy]-L-prolyl-1-amino-2-ethenyl-N-(phenylsulfonyl)-(1R,2S)-cyclopropanecarboxamide] | 1000 to 10000 nM | 1000 to 10000 nM | < 10 nM | 1000 to 10000 nM | E (IC50≧10,000 nM) |  |  |  |  |  |
| C=C[C@@H]1C[C@]1(NC(=O)[C@@H]1C[C@@H](Oc2cc(-c3ccccc3)nc3cc(OC)ccc23)CN1C(=O)C1(NC(=O)OC(C)(C)C)CCN(C(=O)CCl)CC1)C(=O)NS(=O)(=O)c1ccccc1 [Compound I-25, tert-butyl-1-(2-chloroacetyl)-4-((2S,4R)-4-(7-methoxy-2-phenylquinolin-4-yloxy)-2-((1R,2S)-1-(phenylsulfonylcarbamoyl)-2-vinylcyclopropylcarbamoyl)pyrrolidine-1-carbonyl)piperidin-4-ylcarbamate] |  | 10 to 100 nM | < 10 nM | > 10000 nM | C (IC50>100 nM and ≦1000 nM) |  |  |  |  |  |
| C=CC(=O)N1CCC(NC(=O)OC(C)(C)C)(C(=O)N2C[C@H](Oc3cc(-c4ccccc4)nc4cc(OC)ccc34)C[C@H]2C(=O)N[C@]2(C(=O)NS(=O)(=O)c3ccccc3)C[C@H]2C=C)CC1 [Compound I-26, tert-butyl-1-acryloyl-4-((2S,4R)-4-(7-methoxy-2-phenylquinolin-4-yloxy)-2-((1R,2S)-1-(phenylsulfonylcarbamoyl)-2-vinylcyclopropylcarbamoyl)pyrrolidine-1-carbonyl)piperidin-4-ylcarbamate] |  | 100 to 1000 nM | < 10 nM | > 10000 nM | E (IC50≧10,000 nM) |  |  |  |  |  |
| C=C[C@@H]1C[C@]1(NC(=O)[C@@H]1C[C@@H](Oc2cc(-c3ccccc3)nc3cc(OC)ccc23)CN1C(=O)[C@H](CN(C)C(=O)/C=C/CN(C)C)NC(=O)OC(C)(C)C)C(=O)NS(=O)(=O)c1ccccc1 [Compound I-30, tert-butyl-(S)-3-((E)-4-(dimethylamino)-N-methylbut-2-enamido)-1-((2S,4R)-4-(7-methoxy-2-phenylquinolin-4-yloxy)-2-((1R,2S)-1-(phenylsulfonylcarbamoyl)-2-vinylcyclopropylcarbamoyl)pyrrolidin-1-yl)-1-oxopropan-2-ylcarbamate] |  | 100 to 1000 nM | < 10 nM | 10 to 100 nM | E (IC50≧10,000 nM) | 1000 to 10000 nM | 100 to 1000 nM | 10 to 100 nM | 10 to 100 nM | 1000 to 10000 nM |
| C=C[C@@H]1C[C@]1(NC(=O)[C@@H]1C[C@@H](Oc2cc(-c3ccccc3)nc3cc(OC)ccc23)CN1C(=O)[C@H](CN(C)C(=O)C(=C)C)NC(=O)OC(C)(C)C)C(=O)NS(=O)(=O)c1ccccc1 [Compound I-32, tert-butyl-(S)-1-((2S,4R)-4-(7-methoxy-2-phenylquinolin-4-yloxy)-2-((1R,2S)-1-(phenylsulfonylcarbamoyl)-2-vinylcyclopropylcarbamoyl)pyrrolidin-1-yl)-3-(N-methylmethacrylamido)-1-oxopropan-2-ylcarbamate] |  | 1000 to 10000 nM | < 10 nM | 100 to 1000 nM | E (IC50≧10,000 nM) |  |  |  |  |  |
| C=CC(=O)NC[C@H](NC(=O)OC(C)(C)C)C(=O)N1C[C@H](Oc2cc(-c3ccccc3)nc3cc(OC)ccc23)C[C@H]1C(=O)N[C@]1(C(=O)O)C[C@H]1C=C [Compound I-41, (1R,2S)-1-((2S,4R)-1-((S)-3-acrylamido-2-(tert-butoxycarbonylamino)propanoyl)-4-(7-methoxy-2-phenylquinolin-4-yloxy)pyrrolidine-2-carboxamido)-2-vinylcyclopropanecarboxylic acid] |  | 1000 to 10000 nM | 10 to 100 nM | > 10000 nM | E (IC50≧10,000 nM) |  |  |  |  |  |
| C#CCN(C)C(=O)CCCC(=O)N[C@@H](CNC(=O)C=C)C(=O)N1C[C@H](Oc2cc(-c3ccccc3)nc3cc(OC)ccc23)C[C@H]1C(=O)N[C@]1(C(=O)NS(=O)(=O)c2ccccc2)C[C@H]1C=C [Compound I-42] | 100 to 1000 nM |  | < 10 nM | > 10000 nM | E (IC50≧10,000 nM) | 100 to 1000 nM | > 10000 nM | > 10000 nM | 10 to 100 nM |  |
| C=C[C@@H]1C[C@]1(NC(=O)[C@@H]1C[C@@H](Oc2cc(-c3ccccc3)nc3cc(OC)ccc23)CN1C(=O)CNC(=O)/C=C/C)C(=O)NS(=O)(=O)c1ccccc1 [Compound I-47, (2S,4R)-1-(2-(E)-but-2-enamidoacetyl)-4-(7-methoxy-2-phenylquinolin-4-yloxy)-N-((1R,2S)-1-(phenylsulfonylcarbamoyl)-2-vinylcyclopropyl)pyrrolidine-2-carboxamide] |  | 1000 to 10000 nM | 10 to 100 nM | 1000 to 10000 nM | E (IC50≧10,000 nM) |  |  |  |  |  |
| C=C[C@@H]1C[C@]1(NC(=O)[C@@H]1C[C@@H](Oc2cc(-c3ccccc3)nc3cc(OC)ccc23)CN1C(=O)CNC(=O)C#CC)C(=O)NS(=O)(=O)C1CC1 [Compound I-48, (2S,4R)-1-(2-but-2-ynamidoacetyl)-N-((1R,2S)-1-(cyclopropylsulfonylcarbamoyl)-2-vinylcyclopropyl)-4-(7-methoxy-2-phenylquinolin-4-yloxy)pyrrolidine-2-carboxamide] |  | 1000 to 10000 nM | 10 to 100 nM | 1000 to 10000 nM | E (IC50≧10,000 nM) |  |  |  |  |  |
